IC50 and ETA/ETB selectivity data for 29 molecules are collected here from US11319305B2, “Pyrimidine sulfamide derivative and preparation method and medical application thereof” (SHIJIAZHUANG SAGACITY NEW DRUG DEVELOPMENT CO., LTD., priority 2017, dated 2022).

pIC50: −log10 of the molar value.

Assay [1] deals with T1, human ETA receptor (Homo sapiens, UniProt P25101).
T1 construct: endogenously expressed human ETA receptors in SK-N-MC cells; host or cells: SK-N-MC cells
T1 sequence (P25101 21-427): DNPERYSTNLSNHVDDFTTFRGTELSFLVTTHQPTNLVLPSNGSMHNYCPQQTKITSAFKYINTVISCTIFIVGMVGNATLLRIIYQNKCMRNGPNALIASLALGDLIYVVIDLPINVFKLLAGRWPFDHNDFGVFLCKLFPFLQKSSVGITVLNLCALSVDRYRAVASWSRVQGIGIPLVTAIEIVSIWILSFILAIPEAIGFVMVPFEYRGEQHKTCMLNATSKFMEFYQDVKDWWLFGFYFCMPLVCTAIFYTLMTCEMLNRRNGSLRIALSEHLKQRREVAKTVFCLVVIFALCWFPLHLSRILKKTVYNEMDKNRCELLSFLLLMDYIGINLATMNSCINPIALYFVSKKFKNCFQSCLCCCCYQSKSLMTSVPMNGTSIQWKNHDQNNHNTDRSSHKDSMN
Nature of the assay: In vitro antagonistic effect against human ETA receptor, Ca2+ signal in SK-N-MC cells. The note with it: for pIC50: SK-N-MC cells, response to 1 nM endothelin-1; for ETA/ETB selectivity: ratio of ETB IC50 to ETA IC50. The format is cell-based. The protocol:
Experimental Embodiment 1: In Vitro Test of Antagonistic Effect Against Human ETA Receptor
Antagonistic activity of the compounds against endogenously expressed human ETA receptors in SK-N-MC cells was evaluated by measuring the effect of compounds on the changes in cytoplasmic Ca^2+ ion signal induced by human ETA receptor agonists using fluorescence detection methods. The functional activity of the ETA receptor antagonistic effect was tested in Eurofins-Cerep SA according to current standard procedures.
1. Cells were suspended in Dulbecco's modified Eagle medium solution (DMEM, Invitrogen) supplemented with 1% FCSd, then distributed in 384-well plate (100 μL/well) at a density of 5×10^4 cells/well;
2. Probenecid in Hank's balanced salt solution (HBSS, Invitrogen) supplemented with 20 mM 4-(2-hydroxyethyl)piperazine-1-ethanesulfonic acid (Hepes, Invitrogen) (pH 7.4) was mixed with fluorescent probe (Fluo4 NW, Invitrogen), the mixture was added to each wells, then balanced with cells at 37° C. for 60 minutes, and then balanced with cells at 22° C. for 15 minutes;
3. The test plate was placed in a microplate reader (CellLux, PerkinElmer), a DMSO solution or HBSS buffer with an appropriate concentration of the test compound and the positive control was added, and 1 nM endothelin-1 or HBSS buffer (base control) was added after 5 minutes, and then the change in fluorescence intensity proportional to the concentration of Ca^2+ ions of free […] was measured;
5. Standard positive control was BQ-123, several concentrations were tested in each experiments. The data was analyzed using Prism to generate a concentration-response curve, and IC50 values of the compounds were calculated.

Assay [2] has as its target T2, human ETB receptor (Homo sapiens, UniProt P24530).
T2 construct: host or cells: CHO cells
T2 sequence (P24530 27-442): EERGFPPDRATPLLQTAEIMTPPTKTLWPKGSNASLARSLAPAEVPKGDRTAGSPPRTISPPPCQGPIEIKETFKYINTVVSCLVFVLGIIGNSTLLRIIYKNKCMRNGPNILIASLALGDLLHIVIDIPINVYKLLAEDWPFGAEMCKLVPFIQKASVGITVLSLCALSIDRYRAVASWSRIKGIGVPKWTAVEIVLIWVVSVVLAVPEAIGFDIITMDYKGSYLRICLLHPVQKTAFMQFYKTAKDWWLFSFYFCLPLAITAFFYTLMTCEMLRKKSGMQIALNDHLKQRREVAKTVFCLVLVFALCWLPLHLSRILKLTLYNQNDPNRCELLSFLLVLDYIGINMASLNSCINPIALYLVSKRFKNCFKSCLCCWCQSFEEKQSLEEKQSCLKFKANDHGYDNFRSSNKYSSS
As to the kind of experiment: In vitro antagonistic effect against human ETB receptor, Ca2+ signal in transfected CHO cells. Format: cell-based. The note with it: response to 0.3 nM endothelin-1. On the procedure: Antagonist activity of the compound against human ETB receptors expressed in transfected CHO cells was evaluated by measuring the effect of the compound on the changes in the cytoplasmic Ca^2+ ion signal induced by human ETB receptor agonists. The functional activity of the ETB receptor antagonistic effect was tested in Eurofins-Cerep SA according to current standard procedures.
1. Cells were suspended in DMEM buffer (Invitrogen) and then distributed in 384-well plate (100 μL/well) at a density of 3×10^4 cells/well;
2. Probenecid in HBSS buffer (Invitrogen) supplemented with 20 mM Hepes (Invitrogen) (pH 7.4) was mixed with fluorescent probe (Fluo4 NW, Invitrogen), the mixture was added to each wells, then balanced with cells at 37° C. for 60 minutes, and then balanced with cells at 22° C. for 15 minutes;
3. The test plate was placed in a microplate reader (CellLux, PerkinElmer), a DMSO solution or HBSS buffer with an appropriate concentration of the test compound and the positive control was added, and 0.3 nM endothelin-1 or HBSS buffer (base control) was added after 5 minutes, and then the change in fluorescence intensity proportional to the concentration of Ca^2+ ions of […] was measured;
4. Results were shown as the percent inhibition of control response to 0.3 nM endothelin-1;
5. Standard positive control was BQ-788, several concentrations were tested in each experiments. The data was analyzed using Prism to generate a concentration-response curve, and IC50 values of the compounds were calculated.

Usually pIC50 stands for the IC50 on a negative log10 scale, so that one unit is a factor of ten. High values mean a low IC50, low ones a high IC50. For the molecule `O=S(=O)(NCC1CCCO1)Nc1ncnc(OCCOc2ncc(Br)cn2)c1-c1ccc2c(c1)OCO2` (single isomer, unassigned) [WX023], in assay [1], the pIC50 is 9.49 and the ETA/ETB selectivity is reported as 46800. The molecule also gave a negative-log IC50 (pIC50) in assay [2] of 4.82.
In the case of `O=S(=O)(NCC1CCCO1)Nc1ncnc(OCCOc2ncc(Br)cn2)c1-c1ccc2c(c1)OCO2` (single isomer, unassigned) [WX024], in assay [1], the pIC50 was 9.60 and the ETA/ETB selectivity stood at 26800. In assay [2], the pIC50 was 5.17.
Taken in the same sequence, the figures for `CCNS(=O)(=O)Nc1ncnc(OCCOc2ncc(Br)cn2)c1-c1ccc2scnc2c1` [WX002] were 8.55, more than 107000 and less than 3.52.
On the same counts, the results for `O=S(=O)(NCC(F)(F)F)Nc1ncnc(OCCOc2ncc(Br)cn2)c1-c1ccc2scnc2c1` [WX003] are 8.59, 27300 and 4.15.
Taken in the same sequence, the figures for `CCCCNS(=O)(=O)Nc1ncnc(OCCOc2ncc(Br)cn2)c1-c1ccc2scnc2c1` [WX004] were 8.82, 14000 and 4.68.
For `CCCOCCNS(=O)(=O)Nc1ncnc(OCCOc2ncc(Br)cn2)c1-c1ccc2scnc2c1` [WX006], in assay [1], the pIC50 was 8.89 and the ETA/ETB selectivity is more than 230700. Moreover, in assay [2], the pIC50 was less than 3.52.
On the same counts, the results for `COCCCNS(=O)(=O)Nc1ncnc(OCCOc2ncc(Br)cn2)c1-c1ccc2scnc2c1` [WX007] are 8.68, 16600 and 4.46.
Taken in the same sequence, the figures for `CCCNS(=O)(=O)Nc1ncnc(OCCOc2ncc(Br)cn2)c1-c1ccc2c(c1)OCO2` [WX008] were 9.37, 651100 and 3.55.
On the same counts, the results for `CCNS(=O)(=O)Nc1ncnc(OCCOc2ncc(Br)cn2)c1-c1ccc2c(c1)OCO2` [WX009] are 8.64, 30800 and 4.15.
In the case of `O=S(=O)(NCC(F)(F)F)Nc1ncnc(OCCOc2ncc(Br)cn2)c1-c1ccc2c(c1)OCO2` [WX010], in assay [1], the negative logarithm of the IC50 (pIC50) was 8.82 and the ETA/ETB selectivity worked out at 40600. Further, in assay [2], the pIC50 was 4.21.
For `O=S(=O)(Nc1ncnc(OCCOc2ncc(Br)cn2)c1-c1ccc2c(c1)OCO2)NC1CCC1` [WX011], in assay [1], the pIC50 was 9.00 and the ETA/ETB selectivity is listed as 22000. Further, the pIC50 in assay [2] is 4.66.
On the same counts, the results for `CCCCNS(=O)(=O)Nc1ncnc(OCCOc2ncc(Br)cn2)c1-c1ccc2c(c1)OCO2` [WX012] are 9.77, 94100 and 4.80.
Taken in the same sequence, the figures for `O=S(=O)(NCC1CC1)Nc1ncnc(OCCOc2ncc(Br)cn2)c1-c1ccc2c(c1)OCO2` [WX014] were 8.89, 26900 and 4.46.
Taken in the same sequence, the figures for `CCOCCNS(=O)(=O)Nc1ncnc(OCCOc2ncc(Br)cn2)c1-c1ccc2c(c1)OCO2` [WX015] were 9.07, more than 348800 and less than 3.52.
`CCCOCCNS(=O)(=O)Nc1ncnc(OCCOc2ncc(Br)cn2)c1-c1ccc2c(c1)OCO2` [WX016]: in assay [1], the pIC50 was 9.10 and the ETA/ETB selectivity is reported as 27800. For the same molecule, the pIC50 in assay [2] is 4.66.
On the same counts, the results for `COCCCNS(=O)(=O)Nc1ncnc(OCCOc2ncc(Br)cn2)c1-c1ccc2c(c1)OCO2` [WX017] are 9.35, 35500 and 4.80.
Take `CCOCCCNS(=O)(=O)Nc1ncnc(OCCOc2ncc(Br)cn2)c1-c1ccc2c(c1)OCO2` [WX018]: in assay [1], the pIC50 is 9.12 and the ETA/ETB selectivity was 12600. Also, in assay [2], the pIC50 is 5.02.
Taken in the same sequence, the figures for `O=S(=O)(NCC1CCOCC1)Nc1ncnc(OCCOc2ncc(Br)cn2)c1-c1ccc2c(c1)OCO2` [WX019] were 9.36, more than 68100 and less than 4.52.
As to `O=S(=O)(NCC1CCC1)Nc1ncnc(OCCOc2ncc(Br)cn2)c1-c1ccc2c(c1)OCO2` [WX020], in assay [1], the pIC50 is 9.46 and the ETA/ETB selectivity is reported as 48500. Also, the pIC50 in assay [2] is 4.77.
On the same counts, the results for `O=S(=O)(NCC1CCCO1)Nc1ncnc(OCCOc2ncc(Br)cn2)c1-c1ccc2c(c1)OCO2` (stereo not drawn) [WX021] are 9.47, 135200 and 4.34.
Taken in the same sequence, the figures for `CS(=O)(=O)CCNS(=O)(=O)Nc1ncnc(OCCOc2ncc(Br)cn2)c1-c1ccc2c(c1)OCO2` [WX022] were 8.68, 36100 and 4.12.
On the same counts, the results for `CCCCNS(=O)(=O)Nc1ncnc(OCCOc2ncc(Br)cn2)c1-c1ccc2ccnn2c1` [WX026] are 8.96, 66300 and 4.14.
Consider `O=S(=O)(NCC1CC1)Nc1ncnc(OCCOc2ncc(Br)cn2)c1-c1ccc2ccnn2c1` [WX027], for which the pIC50 in assay [1] was 8.55; in assay [2] it was 4.17. Moreover, in assay [1], the ETA/ETB selectivity is listed as 24200.
On the same counts, the results for `O=S(=O)(Nc1ncnc(OCCOc2ncc(Br)cn2)c1-c1ccc2c(c1)OCC2)N1CCC2(CC1)CC2` [WX028] are 8.70, less than 4.00 and more than 50000.
On the same counts, the results for `CCCNS(=O)(=O)Nc1ncnc(OCCOc2ncc(Br)cn2)c1-c1ccc2c(c1)OCC2` [WX029] are 9.19, 4.80 and 24600.
On the same counts, the results for `COCCNS(=O)(=O)Nc1ncnc(OCCOc2ncc(Br)cn2)c1-c1ccc2c(c1)OCC2` [WX030] are 8.89, 4.48 and 25300.
For the molecule `O=S(=O)(Nc1ncnc(OCCOc2ncc(Br)cn2)c1-c1ccc2c(c1)OCC2)N1C[C@H]2C[C@H]2C1` [WX031], in assay [1], the pIC50 was 8.96 and the ETA/ETB selectivity is on record as more than 90900. In assay [2], the pIC50 was less than 4.00.
Taken in the same sequence, the figures for `O=S(=O)(Nc1ncnc(OCCOc2ncc(Br)cn2)c1-c1ccc2c(c1)OCC2)N1CC2(COC2)C1` [WX032] were 8.52, more than 10000 and less than 4.52.
On the same counts, the results for `CCCNS(=O)(=O)Nc1ncnc(OCCOc2ncc(Br)cn2)c1-c1ccc2c(c1)CCO2` [WX033] are 8.80, more than 18700 and less than 4.52.
